12 molecules from ChEMBL document CHEMBL1201862, “PubChem BioAssay data set” (2004) can be followed below.

Some test systems named below: NCI-H23; CCRF-CEM; M14; HT-29; A498; RPMI-8226; U-251; Malme-3M; SK-MEL-5; UO-31; KM12; OVCAR-5; SF-539; HL-60; SN12C; 786-0; NCI/ADR-RES; Hs-578T; PC-3; MDA-MB-231.
Assay in all cases: DTP human tumour cell line panel, 48 h

Molecules are shown by their SMILES.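 Five compound concentrations were applied to cells in 96-well plates for 48 hours; endpoints were derived by simple linear interpolation of the resulting dose-response curve. GI50: concentration for 50% inhibition of growth.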 The source made the active and inactive calls. Rule as the data show it: active = GI50 up to about 1.1 µM and inactive = higher.

The GI50 is the concentration giving 50% growth inhibition. In the case of `COc1cc2c3c(c1OC)C(=O)C=C3N(S(=O)(=O)c1ccc(C)cc1)CC2`, the GI50 in the assay with NCI-H23, in the assay on CCRF-CEM, in the assay with M14, in the assay on HT-29, with A498 and in the assay on RPMI-8226 was > 100 µM (inactive) throughout. Moreover, the GI50 was 84.5 µM (inactive) with U-251; > 100 µM (inactive) in the assay on Malme-3M; > 100 µM (inactive) in the assay with SK-MEL-5; > 100 µM (inactive) in the assay with UO-31; > 100 µM (inactive) in the assay with KM12; > 100 µM (inactive) with OVCAR-5. The GI50 with SF-539 is 52.7 µM (inactive); in the assay with HL-60 it was > 100 µM (inactive); in the assay on SN12C, > 100 µM (inactive); in the assay with 786-0 it was 21.3 µM (inactive).
In the case of `COC1CC(COCc2ccccc2)CC(OC)O1` (stereo not drawn), the GI50 in the assay on NCI-H23 was > 100 µM (inactive); with CCRF-CEM, 0.0198 µM (active); in the assay on M14, > 100 µM (inactive); with HT-29, > 100 µM (inactive); with A498 it was > 100 µM (inactive); with NCI/ADR-RES, > 100 µM (inactive). The GI50 in the assay on RPMI-8226, with SK-MEL-5, in the assay on UO-31, in the assay with Hs-578T, in the assay with KM12 and in the assay with OVCAR-5 was > 100 µM (inactive) throughout. Further, the GI50 in the assay on SF-539 is > 100 µM (inactive); in the assay on HL-60, < 0.01 µM (active); with SN12C, > 100 µM (inactive); in the assay with 786-0, > 100 µM (inactive).
For `Nc1ncnc2c1ncn2C1OC(CSC(F)F)C(O)C1O` (stereo not drawn), the GI50 with NCI-H23, with CCRF-CEM, in the assay with M14, with HT-29, in the assay on A498 and with RPMI-8226 was > 100 µM (inactive) throughout. Also, the GI50 in the assay on U-251, with Malme-3M, in the assay with SK-MEL-5, in the assay with UO-31, in the assay with KM12 and with OVCAR-5 was > 100 µM (inactive) in each case. Moreover, the GI50 with SF-539, with HL-60, in the assay on SN12C and in the assay on 786-0 was > 100 µM (inactive) each time.
`CCOC(=O)C1C(=O)C(=O)N2CCc3c([nH]c4ccccc34)C12` (stereo not drawn): the GI50 with NCI-H23, with CCRF-CEM, in the assay on M14, with HT-29, in the assay with A498 and with RPMI-8226 was > 100 µM (inactive) each time. Further, the GI50 in the assay with U-251, with Malme-3M, in the assay with SK-MEL-5, with UO-31, in the assay with KM12 and in the assay with OVCAR-5 was > 100 µM (inactive) in each case. The GI50 in the assay with SF-539, in the assay on HL-60, in the assay on SN12C and in the assay on 786-0 was > 100 µM (inactive) throughout.
On to `O=C(O)C12CCC(CC1=O)C2` (stereo not drawn), for which the GI50 with NCI-H23, in the assay with CCRF-CEM, in the assay with M14, in the assay with HT-29, with PC-3 and in the assay on NCI/ADR-RES was > 100 µM (inactive) throughout. Further, the GI50 in the assay with RPMI-8226, with U-251, with Malme-3M, in the assay with SK-MEL-5, in the assay with UO-31 and in the assay on Hs-578T was > 100 µM (inactive) each time. Besides, the GI50 in the assay on KM12, with OVCAR-5, in the assay on HL-60, in the assay with SN12C and in the assay with 786-0 was > 100 µM (inactive) in each case.
With `CCOc1ccc2nc(NC(=O)C(=O)C(C#N)CC(C)(C)C=O)sc2c1` (stereo not drawn), the GI50 in the assay on NCI-H23 was > 100 µM (inactive); in the assay with CCRF-CEM it was 26.9 µM (inactive); with M14, > 100 µM (inactive); in the assay on HT-29, > 100 µM (inactive); in the assay on A498 it was > 100 µM (inactive); in the assay with RPMI-8226 it was 75.3 µM (inactive). Also, the GI50 in the assay on U-251, in the assay with Malme-3M, in the assay with SK-MEL-5, in the assay on UO-31, in the assay with KM12 and in the assay with OVCAR-5 was > 100 µM (inactive) throughout. The GI50 was 75.7 µM (inactive) in the assay with SF-539, > 100 µM (inactive) with HL-60, > 100 µM (inactive) in the assay on SN12C and > 100 µM (inactive) with 786-0.
On to `Cc1nc2c(Cl)cc(Cl)cc2c2c1CCO2`, for which the GI50 in the assay with NCI-H23 was > 100 µM (inactive); with CCRF-CEM, 48.4 µM (inactive); with M14, > 100 µM (inactive); with MDA-MB-231 it was > 100 µM (inactive); in the assay with HT-29, > 100 µM (inactive); in the assay with A498, 67.1 µM (inactive). Besides, the GI50 in the assay with NCI/ADR-RES was > 100 µM (inactive); in the assay with RPMI-8226, > 100 µM (inactive); in the assay with U-251, > 100 µM (inactive); with Malme-3M it was > 100 µM (inactive); in the assay with SK-MEL-5 it was > 100 µM (inactive); in the assay with UO-31, 67 µM (inactive). The GI50 in the assay with Hs-578T is > 100 µM (inactive); in the assay on KM12, > 100 µM (inactive); in the assay on OVCAR-5, > 100 µM (inactive); in the assay with SF-539, > 100 µM (inactive); in the assay with HL-60 it was 65.3 µM (inactive); in the assay on SN12C it was > 100 µM (inactive). Also, in the assay with 786-0, the GI50 is > 100 µM (inactive).
As for `CC(C)(C)C#COC(=O)c1ccccc1`, the GI50 with NCI-H23, in the assay on CCRF-CEM, in the assay with M14, in the assay on HT-29, in the assay with A498 and in the assay with RPMI-8226 was > 100 µM (inactive) throughout. Also, the GI50 in the assay with U-251, with Malme-3M, in the assay with SK-MEL-5, in the assay with UO-31, with KM12 and with OVCAR-5 was > 100 µM (inactive) throughout. Besides, the GI50 with SF-539, in the assay with HL-60, in the assay with SN12C and in the assay with 786-0 was > 100 µM (inactive) throughout.
Turning to `OCCCSc1ccccc1SCCCO`, the GI50 with NCI-H23, in the assay with CCRF-CEM, with M14, with MDA-MB-231, in the assay on HT-29 and in the assay with PC-3 was > 100 µM (inactive) each time. Besides, the GI50 in the assay with NCI/ADR-RES, in the assay on U-251, with SK-MEL-5, with UO-31, in the assay on KM12 and with OVCAR-5 was > 100 µM (inactive) in each case. For the same molecule, the GI50 in the assay on SF-539, in the assay with HL-60, with SN12C and with 786-0 was > 100 µM (inactive) in each case.
Turning to `CC(C)N(C(=O)C12C3C4C1C1C4(C#N)C3C12C(=O)O)C(C)C` (stereo not drawn), the GI50 in the assay on NCI-H23 was > 100 µM (inactive); in the assay with CCRF-CEM, > 48.4 µM (inactive); in the assay with M14 it was > 100 µM (inactive); with HT-29, > 100 µM (inactive); with A498 it was > 100 µM (inactive); with RPMI-8226, > 43.1 µM (inactive). The GI50 with U-251, in the assay with Malme-3M, in the assay on SK-MEL-5, in the assay on UO-31, in the assay with KM12 and with OVCAR-5 was > 100 µM (inactive) each time. For the same molecule, the GI50 was > 100 µM (inactive) with SF-539, > 45.5 µM (inactive) in the assay with HL-60, > 100 µM (inactive) in the assay with SN12C and > 100 µM (inactive) in the assay on 786-0.
In the case of `CN(C)CC/C(=N\Nc1c(F)c(F)c(F)c(F)c1F)c1ccccc1`, the GI50 in the assay on NCI-H23 was 77.1 µM (inactive); in the assay with CCRF-CEM it was 21.2 µM (inactive); in the assay with M14, > 10 µM (inactive); with HT-29, 35.8 µM (inactive); in the assay with A498 it was 74.5 µM (inactive); with RPMI-8226 it was 19 µM (inactive). Besides, the GI50 in the assay with U-251 was 42.4 µM (inactive); in the assay on Malme-3M, 36.9 µM (inactive); with SK-MEL-5, 14.2 µM (inactive); in the assay on UO-31, 7.38 µM (inactive); in the assay on KM12, 48.5 µM (inactive); in the assay on OVCAR-5 it was 49.9 µM (inactive). Also, the GI50 in the assay with SF-539 is 40.2 µM (inactive); in the assay on HL-60, 9.68 µM (inactive); in the assay on SN12C, 37.8 µM (inactive); with 786-0, 82.4 µM (inactive).
With `O=C1C(CO)=C[C@@H](O)[C@H]2O[C@@H]12` [EPOXYDON], the GI50 is 65.6 µM (inactive) in the assay with NCI-H23; 30.7 µM (inactive) in the assay on CCRF-CEM; > 100 µM (inactive) with M14; > 100 µM (inactive) with MDA-MB-231; > 100 µM (inactive) in the assay on HT-29; > 100 µM (inactive) in the assay with A498. Besides, the GI50 with NCI/ADR-RES is 75.5 µM (inactive); in the assay with RPMI-8226, 33.3 µM (inactive); in the assay with U-251, 61.5 µM (inactive); in the assay with Malme-3M it was > 100 µM (inactive); in the assay with SK-MEL-5, > 100 µM (inactive); in the assay on UO-31, > 100 µM (inactive). Moreover, the GI50 was > 100 µM (inactive) in the assay on Hs-578T; > 100 µM (inactive) with KM12; > 100 µM (inactive) in the assay with OVCAR-5; 26 µM (inactive) with HL-60; 18.4 µM (inactive) in the assay on SN12C; 39.8 µM (inactive) in the assay with 786-0.
